Assay [1] addresses T1, COX-1 (Ovis aries, UniProt P05979).
T1 construct: purchased Sigma-Aldrich C0733-5000UN
T1 sequence (P05979 25-600): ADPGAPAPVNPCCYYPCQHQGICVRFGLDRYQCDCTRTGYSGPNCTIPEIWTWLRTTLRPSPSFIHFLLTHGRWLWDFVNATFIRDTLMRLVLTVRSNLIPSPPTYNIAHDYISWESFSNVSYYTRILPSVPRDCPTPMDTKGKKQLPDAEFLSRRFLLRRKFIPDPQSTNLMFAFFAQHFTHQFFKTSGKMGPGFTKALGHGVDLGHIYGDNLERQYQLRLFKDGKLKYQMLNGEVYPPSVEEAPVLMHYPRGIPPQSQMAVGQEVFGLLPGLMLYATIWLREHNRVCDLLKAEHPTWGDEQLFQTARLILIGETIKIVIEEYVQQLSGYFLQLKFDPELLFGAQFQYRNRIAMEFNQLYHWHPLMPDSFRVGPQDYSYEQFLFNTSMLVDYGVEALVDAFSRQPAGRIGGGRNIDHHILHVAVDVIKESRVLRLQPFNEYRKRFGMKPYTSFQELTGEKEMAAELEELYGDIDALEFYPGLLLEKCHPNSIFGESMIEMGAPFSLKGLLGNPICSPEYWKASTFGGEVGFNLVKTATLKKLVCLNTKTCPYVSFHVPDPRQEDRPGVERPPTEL
In words: In vitro COX-1 enzyme inhibitory assay. Format: biochemical, sheep. To be noted: mean ± SEM; n = 3. As to the method: (§1) In a nutshell, the test specimens were made in progressively higher concentrations. Furthermore, enzyme solutions for COX-1 from a sheep source (CAT: C0733-5000UN, Sigma-Aldrich) and COX-2 from a human recombinant source (CAT: C0858) were developed. COX-1 has a concentration of 0.7–0.8 g/L, whereas COX-2 has a concentration of 300 units/mL. […] The COX-2 enzyme solution was primed at 300 U/mL levels. 10 μL of the enzyme solution was kept on ice (4°C) for 5–6 min before 50 µL of the required co-factor solution was added. This solution contains 1 mM hematin in a 0.1 M Tris-buffer with pH 8.0, 0.24 mM tetramethyl-p-phenylenediamine dihydrochloride (TMPD), and 0.9 mM glutathione. Then, for the next 5–10 min, the enzyme solution (60 µL) and experiment samples (20 µL) of different strengths has been kept at the normal temperature. Similar to that, 20 µL of 30 mM arachidonic acid was utilized to start the procedure. The mixture’s temperature was held at 37°C for an additional 15 min. A UV-visible spectrophotometer was used to determine the absorbance at 570 nm after which the process was halted by adding HCl. Using the absorbance value per unit time, the percentage of COX-2 inhibition was computed. Celecoxib served as the standard control in the present study.

The target of assay [2] is T2, COX-2 (Homo sapiens, UniProt P35354).
T2 construct: purchased Sigma-Aldrich C0858
T2 sequence (P35354 18-604): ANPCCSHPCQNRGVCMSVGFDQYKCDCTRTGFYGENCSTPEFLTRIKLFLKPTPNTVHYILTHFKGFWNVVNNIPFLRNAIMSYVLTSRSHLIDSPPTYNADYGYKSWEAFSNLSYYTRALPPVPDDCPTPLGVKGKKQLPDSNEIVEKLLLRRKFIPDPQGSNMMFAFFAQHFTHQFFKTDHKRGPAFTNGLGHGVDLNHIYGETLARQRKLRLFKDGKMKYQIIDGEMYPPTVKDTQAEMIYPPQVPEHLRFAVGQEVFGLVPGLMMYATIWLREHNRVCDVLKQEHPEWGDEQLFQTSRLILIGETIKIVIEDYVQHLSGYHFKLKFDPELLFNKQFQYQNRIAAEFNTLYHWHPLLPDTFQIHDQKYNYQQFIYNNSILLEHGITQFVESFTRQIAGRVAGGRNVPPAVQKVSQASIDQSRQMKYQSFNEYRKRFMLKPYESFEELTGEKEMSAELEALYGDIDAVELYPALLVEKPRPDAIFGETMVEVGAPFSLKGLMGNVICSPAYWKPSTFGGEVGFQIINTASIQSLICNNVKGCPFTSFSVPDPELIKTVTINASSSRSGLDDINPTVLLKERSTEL
The experiment in a line: In vitro COX-2 enzyme inhibitory assay. It is filed as biochemical. The conditions noted are these: mean ± SEM; n = 3. As to the method: as §1

Take `Cc1cc(C2=C(C(F)(F)F)NC(=O)NC2c2ccccc2)no1` (centres unmarked) [Compound C1, 5-(5-methylisoxazol-3-yl)-4-phenyl-6-(trifluoromethyl)-3,4-dihydropyrimidin-2(1H)-one]: the IC50 in assay [1] is 239 ± 2.3 µM; in assay [2] it was 2.52 ± 0.02 µM.

Consider `COc1ccc(C2NC(=O)NC(C(F)(F)F)=C2c2cc(C)on2)cc1` (centres unmarked) [Compound C2, 4-(4-methoxyphenyl)-5-(5-methylisoxazol-3-yl)-6-(trifluoromethyl)-3,4-dihydro-pyrimidin-2(1H)-one], for which the values for the IC50 in assay [1] and in assay [2] were 172 ± 1.9 µM and 2.43 ± 0.05 µM, respectively.

For the compound `COc1ccc(C2NC(=O)NC(C(F)(F)F)=C2c2cc(-c3ccccc3)on2)cc1O` (centres unmarked) [Compound C3, 4-(3-hydroxy-4-methoxyphenyl)-5-(5-phenylisoxazol-3-yl)-6-(trifluoromethyl)-3,4-dihydropyrimidin-2(1H)-one], the IC50 came to 22.6 ± 0.9 µM in assay [1] and 0.93 ± 0.01 µM in assay [2].

Take `COc1ccc(C2NC(=O)NC(C(F)(F)F)=C2c2cc(-c3ccc(-c4ccccc4)cc3)on2)cc1` (centres unmarked) [Compound C4, 5-(5-([1,1′-biphenyl]-4-yl)isoxazol-3-yl)-4-(4-methoxyphenyl)-6-(trifluoromethyl)-3,4-dihydropyrimidin-2(1H)-one]: the IC50 in assay [1] was determined as 66.8 ± 1.84 µM; in assay [2], 8.27 ± 0.2 µM.

For the compound `O=C1NC(C(F)(F)F)=C(c2cc(-c3ccco3)on2)C(c2ccco2)N1` (centres unmarked) [Compound C5, 4-(furan-2-yl)-5-(5-(furan-2-yl)isoxazol-3-yl)-6-(trifluoromethyl)-3,4-dihydropyrimidin-2(1H)-one], the values for the IC50 in assay [1] and in assay [2] were 35.5 ± 1.49 µM and 0.85 ± 0.04 µM, respectively.

For `COc1ccc(C2NC(=O)NC(C(F)(F)F)=C2c2cc(-c3ccco3)on2)cc1` (centres unmarked) [Compound C6, 5-(5-(furan-2-yl)isoxazol-3-yl)-4-(4-methoxyphenyl)-6-(trifluoromethyl)-3,4-dihydro-pyrimidin-2(1H)-one], the IC50 in assay [1] amounted to 34 ± 1.31 µM; in assay [2], 0.55 ± 0.03 µM.

For the compound `O=C1NC(C(F)(F)F)=C(c2cc(-c3ccco3)on2)C(c2ccc(C(F)(F)F)cc2)N1` (centres unmarked) [Compound C7, 5-(5-(furan-2-yl)isoxazol-3-yl)-6-(trifluoromethyl)-4-(4-(trifluoromethyl)phenyl)-3,4-dihydropyrimidin-2(1H)-one], the half-inhibitory concentration (IC50) is 83.8 ± 0.96 µM in assay [1] and 0.74 ± 0.1 µM in assay [2].

With `Cc1ccc(C2NC(=O)NC(C(F)(F)F)=C2c2cc(-c3ccco3)on2)cc1` (centres unmarked) [Compound C8, 5-(5-(furan-2-yl)isoxazol-3-yl)-4-p-tolyl-6-(trifluoromethyl)-3,4-dihydropyrimidin-2(1H)-one], the IC50 in assay [1] is 91.19 ± 0.51 µM; in assay [2] it was 0.79 ± 0.05 µM.

With `O=C1NC(C(F)(F)F)=C(c2cc(-c3ccncc3)on2)C(c2ccccc2)N1` (centres unmarked) [Compound C9, 4-phenyl-5-(5-(pyridin-4-yl)isoxazol-3-yl)-6-(trifluoromethyl)-3,4-dihydropyrimidin-2(1H)-one], the IC50 came out at 101 ± 1.17 µM in assay [1] and 1.7 ± 0.1 µM in assay [2].

Consider `O=C1NC(C(F)(F)F)=C(c2cc(-c3ccncc3)on2)C(c2ccncc2)N1` (centres unmarked) [Compound C10, 4-(Pyridin-4-yl)-5-(5-(pyridin-4-yl)isoxazol-3-yl)-6-(trifluoromethyl)-3,4 dihydropyrimidin-2(1H)-one], for which the figures for the 50% inhibitory concentration (IC50) in assay [1] and in assay [2] were 61.9 ± 1.11 µM and 20 ± 0.4 µM, respectively.

Source of the values: PMC10511884 (Frontiers in Chemistry, 2023).
